According to patent publication US8937038B2, “Composition containing peptide ligand that bonds with CXCR2 for treating infective and inflammatory diseases” (priority 2010, dated 2015):

System: mice into which LPS was intraperitoneally injected
Experiment: Survival in LPS-induced sepsis model
Type: in vivo, mouse
Conditions: 60 mg/kg LPS intraperitoneally; FIG. 4
Protocol: Male WT ICR mice were used to evaluate a therapeutic effect of Ac-PGP. IFN-γ-deficient mice (kindly provided by Y. K. Kim at the Pohang University of Science and Technology, Pohang, Republic of Korea) were used for mechanism study. All Examples in which animals were used were performed according to the instructions with permission of the Institutional Review Board (IRB) for the care and management of laboratory animals at Dong-A University. In the case of the CLP, mice were anesthetized with pentothal sodium (50 mg/kg, intraperitoneally injected), and abdomen of each mouse was cut along a central cutting line to expose an appendix. Then, an ileocecal valve of the appendix was tied up, both surfaces of the ileocecal valve were punctured twice with a 22-gauge needle (or punctured once to measure a production amount of cytokines), and the abdomen was sutured. Sham CLP mice were treated in the same manner as described above, except that CLP of the appendix was not performed. A survival rate of the mice was monitored every day for 10 days. In the case of the LPS or E. coli model, E. coli and LPS were intraperitoneally injected at concentrations of 1×10^9 cells/mouse and 60 mg/kg, respectively. A survival rate of the mice was monitored once a day for 10 days.
In another mouse model of sepsis, a therapeutic effect of Ac-PGP was also evaluated.

acetylated-Pro-Gly-Pro [Ac-PGP]
mortality: decreased mortality
